From paper PMC3653412 (European journal of pharmacology, 2012)

Biological target: complex I (NADH:ubiquinone oxidoreductase) (Rattus norvegicus, UniProt A6K8N6+P03889+Q641Y2)
Assay: oxygen consumption of isolated mitochondria, Clark electrode
Format: biochemical
Conditions: read-out: % inhibition at 0.5 mM

FC(F)OC(Cl)C(F)(F)F (stereo not shown) [isoflurane]
inhibition at 500 µM: 28 ± 10%
